# According to patent US4560509A, “Antibiotic A39079 factor S-1” (Eli Lilly and Company, priority 1983, dated 1985):
# Assays:
# solubility = type: physicochemical
# [1] = test system: bacteria normally present in the monogastric digestive system; assay: glucose sparing / feed-utilization efficiency in monogastric animals; conditions: statement in words
# Source text: Yet another important property of factor S-1 is its ability to improve feed-utilization efficiency in monogastric animals. Commercially important monograstric animals include chickens and pigs. In addition, young ruminants, especially those still unweaned, function as monogastric animals. In the monogastric animal, bacteria and the host compete for nutrients in the digestive process. Agents which cause the bacteria to use less efficient substrates, leaving more efficient substrates such as glucose for the host animal, increase the feed-utilization efficiency of the host animal.
# Micrococcus luteus = assay: antibiotic activity of column fractions; type: cell-based
# Protocol: Whole broth (100 L), prepared in a manner similar to that of Example 1, Section B, was filtered using a filter aid (Hyflo Supercel, Johns-ManvilleCorp.). The filtered broth (86 L) is adjusted to pH 2 with 5N hydrochloric acid and then is extracted twice with ethyl acetate (1/2 volumes). The ethyl acetate extracts are concentrated under vacuum to give an oily residue (49 g). This residue is dissolved in methanol and placed on a 10-L Diaion HP-20 column (Mitsubishi Industries). The column is washed with water (500 ml) and eluted with acetonitrile:water (30 L of 3:7 and 50 L of 3:2) and acetonitrile (20 L). Elution is carried out at a rate of 100 ml/min., collecting 4-liter fractions. Fractions are tested for antibiotic activity against Micrococcus luteus, Escherichia coli, and Neurospora crassa.
# Factor S-1 is further purified in 200-mg portions by dissolving it in methanol and chromatographing the solution on a 1"×30-cm column packed with Zorbax ODS (12μ) (E. I. duPont). The column is eluted at 10 ml/min with 45% acetonitrile in 0.01% trifluoroacetic acid (400 ml) and then with a 400-ml gradient of from 45%-100% acetonitrile in 0.01% trifluoroacetic acid. Fractions are checked by UV absorption at 264 nm and by disc bioassay against M. luteus. Fractions containing only factor S-1 are combined, concentrated and lyophilized to dryness. […]
# rumen flora = assay: ruminant feed-utilization activity (VFA and methane production in treated vs control flasks); type: cell-based
# Source text: Animals having a developed rumen function utilize feed by first degrading the carbohydrate (the main nutritive portion) to pyruvate. The pyruvate is further metabolized to volatile fatty acid (VFA) derivatives, which include acetate, propionate and butyrate. It is known that the efficiency of carbohydrate utilization in ruminants is increased by treatments which stimulate the animals' rumen flora to produce propionate compounds rather than acetate or butyrate compounds. Feed-utilization efficiency can also be improved by inhibiting methane production. When methane gas is produced in the rumen, it is generally lost through eructation. This energy loss can be minimized by inhibiting methane formation.
# pathogenic bacteria = assay: growth inhibition of pathogenic bacteria (general statement); type: cell-based
# Source text: Table V summarizes the minimal inhibitory concentrations (MIC) at which factor S-1 inhibits certain organisms as determined by standard agar-dilution assays. In Table V, the activity of factor S-1 is compared with that of rifampin.
smiles,measurement,setting,value
CC(=O)OC1C(C)C(O)C=COC2(C)Oc3c(C)c(O)c4c(c3C2=O)C(=O)C(C)=C(NC(=O)C=CC=CC(C)C(O)C(C)C(O)C1C)C4=O (centres unmarked) [Factor S-1],solubility,"solubility; solvents such as methanol, acetonitrile and acetone",soluble
same,solubility,solubility; water,only slightly soluble
same,effect on consumption of glucose by bacteria (glucose sparing),[1],prevents the consumption of glucose by bacteria normally present in the monogastric digestive system
same,activity against M. luteus,Micrococcus luteus,active
same,"Ratio of Treated to Control, Molar Percent, acetic",rumen flora; dose 0.5 ppm,1.04
same,"Ratio of Treated to Control, Molar Percent, butyric",rumen flora; dose 0.5 ppm,0.57
same,"Ratio of Treated to Control, Molar Percent, propionic",rumen flora; dose 0.5 ppm,1.29
same,"Ratio of Treated to Control, mMoles/Day, Total VFA",rumen flora; dose 0.5 ppm,1.18
same,"Ratio of Treated to Control, mMoles/Day, acetic",rumen flora; dose 0.5 ppm,1.22
same,"Ratio of Treated to Control, mMoles/Day, butyric",rumen flora; dose 0.5 ppm,0.67
same,"Ratio of Treated to Control, mMoles/Day, methane",rumen flora; dose 0.5 ppm,1.03
same,"Ratio of Treated to Control, mMoles/Day, propionic",rumen flora; dose 0.5 ppm,1.52
same,"Ratio of Treated to Control, Molar Percent, acetic",rumen flora; dose 1 ppm,1.05
same,"Ratio of Treated to Control, Molar Percent, butyric",rumen flora; dose 1 ppm,0.48
same,"Ratio of Treated to Control, Molar Percent, propionic",rumen flora; dose 1 ppm,1.49
same,"Ratio of Treated to Control, mMoles/Day, Total VFA",rumen flora; dose 1 ppm,1.22
same,"Ratio of Treated to Control, mMoles/Day, acetic",rumen flora; dose 1 ppm,1.27
same,"Ratio of Treated to Control, mMoles/Day, butyric",rumen flora; dose 1 ppm,0.59
same,"Ratio of Treated to Control, mMoles/Day, methane",rumen flora; dose 1 ppm,0.98
same,"Ratio of Treated to Control, mMoles/Day, propionic",rumen flora; dose 1 ppm,1.75
same,"Ratio of Treated to Control, Molar Percent, acetic",rumen flora; dose 2 ppm,1.08
same,"Ratio of Treated to Control, Molar Percent, butyric",rumen flora; dose 2 ppm,0.43
same,"Ratio of Treated to Control, Molar Percent, propionic",rumen flora; dose 2 ppm,1.55
same,"Ratio of Treated to Control, mMoles/Day, Total VFA",rumen flora; dose 2 ppm,1.06
same,"Ratio of Treated to Control, mMoles/Day, acetic",rumen flora; dose 2 ppm,1.15
same,"Ratio of Treated to Control, mMoles/Day, butyric",rumen flora; dose 2 ppm,0.46
same,"Ratio of Treated to Control, mMoles/Day, methane",rumen flora; dose 2 ppm,1.09
same,"Ratio of Treated to Control, mMoles/Day, propionic",rumen flora; dose 2 ppm,1.63
same,"Ratio of Treated to Control, Molar Percent, acetic",rumen flora; dose 5 ppm,1.07
same,"Ratio of Treated to Control, Molar Percent, butyric",rumen flora; dose 5 ppm,0.62
same,"Ratio of Treated to Control, Molar Percent, propionic",rumen flora; dose 5 ppm,1.30
same,"Ratio of Treated to Control, mMoles/Day, Total VFA",rumen flora; dose 5 ppm,1.07
same,"Ratio of Treated to Control, mMoles/Day, acetic",rumen flora; dose 5 ppm,1.16
same,"Ratio of Treated to Control, mMoles/Day, butyric",rumen flora; dose 5 ppm,0.66
same,"Ratio of Treated to Control, mMoles/Day, methane",rumen flora; dose 5 ppm,0.50
same,"Ratio of Treated to Control, mMoles/Day, propionic",rumen flora; dose 5 ppm,1.39
same,feed-utilization efficiency in ruminants,rumen flora; statement in words,improve feed-utilization efficiency in ruminants
same,inhibition of growth of pathogenic bacteria,pathogenic bacteria,"inhibits the growth of a broad spectrum of pathogenic bacteria, especially gram-positive bacteria"
